Experimental data taken from PubChem BioAssay (NCI).
Values joined by “and” are separate entries in the source; they are usually repeats but may differ in a detail not shown here. Equal entries are not always repeated.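 Briefly, cells in 96-well plates were exposed to five compound concentrations for 48 h, and endpoints were estimated by linear interpolation. GI50 marks 50% less growth. At the TGI there is no net growth.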

Experiments:
Assay in all cases: NCI anticancer screen, dose series, 48 h
[1] = tested on: A549 NSCLC
[2] = tested on: HS 578T breast
[3] = tested on: LOX IMVI melanoma
[4] = tested on: M14 melanoma
[5] = tested on: MOLT-4 leukemia
[6] = tested on: NCI-H226 lung
[7] = tested on: OVCAR-4 ovarian
[8] = tested on: RXF 393 renal
[9] = tested on: SR leukemia
[10] = tested on: T-47D breast

Structure (SMILES) | GI50 [1] | TGI [1] | GI50 [2] | TGI [2] | GI50 [3] | TGI [3] | GI50 [4] | TGI [4] | GI50 [5] | TGI [5] | GI50 [6] | TGI [6] | GI50 [7] | TGI [7] | GI50 [8] | TGI [8] | GI50 [9] | TGI [9] | GI50 [10] | TGI [10]
CCOC(=O)n1cc(C2=C(c3ccc(OC)c(OC)c3)COC2=O)c2ccccc21 | 0.11 µM | > 100 µM | 0.087 µM | > 100 µM | 0.0623 µM | > 100 µM | 0.0348 µM | > 100 µM | 0.0581 µM | > 100 µM | 0.0548 µM | > 100 µM | 2.36 µM | > 100 µM | 0.0252 µM | > 100 µM | 0.0297 µM | > 100 µM | – | –
S=P1(Oc2ccccc2)NNP2(=NP(N3CC3)(N3CC3)=NP(N3CC3)(N3CC3)=N2)NN1 (centres undefined) | – | > 100 µM | – | – | – | > 100 µM | – | – | – | > 100 µM | – | > 100 µM | – | > 100 µM | – | – | – | – | – | –
O=[N+]([O-])c1cc([N+](=O)[O-])c(C(F)(F)F)cc1NN=C(c1ccc(O)cc1)c1ccc(O)cc1 | 2.98 µM | 14.5 µM | – | – | 1.57 µM | 3.21 µM | 3.18 µM | 12.7 µM | 1.8 µM | 5.77 µM | 4.03 µM | 23.7 µM | 3.25 µM | 19.2 µM | 2.64 µM | 8.47 µM | 1.55 µM | 6.42 µM | 2.74 µM | 13.3 µM
CC#Cc1ccc(-c2ccccc2)s1 | – | > 100 µM | – | > 100 µM | – | > 100 µM | – | > 100 µM | – | > 100 µM | – | > 100 µM | – | > 100 µM | – | > 100 µM | – | > 100 µM | – | –
O=C1C(C(Nc2ccccc2)c2ccccc2)=C([O-])c2ccccc21.O=C1C(C(Nc2ccccc2)c2ccccc2)=C([O-])c2ccccc21.[Cu+2] (centres undefined) | 27.2 µM | > 100 µM | – | – | 46.6 µM | > 100 µM | 18.5 µM | > 100 µM | 25.5 µM | > 100 µM | – | – | – | – | – | – | 42.2 µM | > 100 µM | – | –
C=C(C)C12OC1[C@@]1(C)C(=CC2=O)CCC(O)[C@@H]1C (some centres undefined) | – | 20.3 µM | – | 9.26 µM | – | 16.6 µM | – | 18.1 µM | – | 3.66 µM | – | – | – | > 100 µM | – | – | – | 11.3 µM | – | 78.4 µM
C[C@@H]1CC[C@H]2C(C)(C)[C@H]3C[C@@]12CC[C@@]3(C)O | – | > 100 µM | – | > 100 µM | – | > 100 µM | – | > 100 µM | – | > 100 µM | – | > 100 µM | – | > 100 µM | – | – | – | 48.6 µM | – | > 100 µM
CCCOc1nc(N)c2cnn(C3CCCCO3)c2n1 (centres undefined) | – | > 100 µM | – | – | – | – | – | > 100 µM | – | > 100 µM | – | > 100 µM | – | > 100 µM | – | > 100 µM | – | > 100 µM | – | –
CN(C)C=Nc1nc(=O)n(C2CCC(CO)O2)cc1F (centres undefined) | – | > 100 µM | – | – | – | > 100 µM | – | > 100 µM | – | > 100 µM | – | > 100 µM | – | > 100 µM | – | > 100 µM | – | – | – | –
CC1(C)CC(c2c[nH]c3ccccc23)=CC2=Nc3ccccc3C21O (centres undefined) | – | > 100 µM | – | – | – | > 100 µM | – | > 100 µM | – | > 100 µM | – | 57.7 µM | – | > 100 µM | – | > 100 µM | – | – | – | –
CN(C)CC1CCCC/C1=N/O (centres undefined) | – | > 100 µM | – | – | – | > 100 µM | – | > 100 µM | – | > 100 µM | – | > 100 µM | – | > 100 µM | – | > 100 µM | – | – | – | –
C#Cc1cccc(Nc2nc3cc([N+](=O)[O-])ccc3nc2Nc2ccc(O)cc2)c1 | 2.17 µM | 4.78 µM | 1.89 µM | 4.71 µM | 1.38 µM | 2.69 µM | 1.43 µM | 2.99 µM | 1.2 µM | 4.17 µM | – | – | 1.99 µM | 5.03 µM | 1.73 µM | 3.58 µM | – | – | 1.93 µM | 6.24 µM
CCC(C)SC1SCC2C(=O)N(C)C3(CC3C)C(=O)OCC(NC(=O)c3nc4ccccc4cc3O)C(=O)NC(C)C(=O)N(C)C1C(=O)N(C)C1(CC1C)C(=O)OCC(NC(=O)c1nc3ccccc3cc1O)C(=O)NC(C)C(=O)N2C (centres undefined) | – | 1.91 µM | – | 0.000309 µM | – | 0.000122 µM | – | 0.000846 µM and < 0.025 µM | – | 0.0687 µM | – | 0.000892 µM | 0.000187 µM | 0.0182 µM | – | 0.000154 µM | – | – | – | 0.00514 µM
CN(C)CC1CCC/C1=N/OC(=O)c1ccccc1 (centres undefined) | – | – | – | – | – | > 100 µM | – | > 100 µM | – | > 100 µM | – | > 100 µM | – | > 100 µM | – | > 100 µM | – | > 100 µM | – | –
COc1ccc(Cn2c(Br)c3c(c2Br)-c2nc(N)sc2CC3)cc1 | 4.77 µM | 77 µM | 5.61 µM | > 100 µM | 3.35 µM | 16.3 µM | 3.96 µM | 17.6 µM | 0.962 µM | 21.7 µM | – | – | – | – | 1.97 µM | 5.05 µM | 0.84 µM | > 100 µM | 3.03 µM | 12.8 µM
O=c1c2cccnc2ncn1CCN1CCCCC1 | – | > 100 µM | – | – | – | > 100 µM | – | > 100 µM | – | > 100 µM | – | > 100 µM | – | > 100 µM | – | > 100 µM | – | > 100 µM | – | –
N#CCCC[Si]12OCCN(CCO1)CCO2 | – | > 100 µM | – | – | – | – | – | – | – | > 100 µM | – | > 100 µM | – | – | – | > 100 µM | – | > 100 µM | – | –
COc1ccc(C(c2cc(OC)c(OC)c(OC)c2)n2cncn2)cc1O (centres undefined) | 0.969 µM | > 100 µM | 0.548 µM | > 100 µM | 0.523 µM | > 100 µM | 0.374 µM | > 100 µM | 0.51 µM | > 100 µM | 1.43 µM | > 100 µM | 3.02 µM | > 100 µM | 0.321 µM | > 100 µM | – | – | – | –
Clc1ccc2cccc3c2c1C1OC3c2ccccc21 (centres undefined) | – | > 100 µM | – | – | – | > 100 µM | – | > 100 µM | – | > 100 µM | – | > 100 µM | – | – | – | > 100 µM | – | > 100 µM | – | –
Cc1nnc2ccnn2c1C | > 100 µM | > 100 µM | > 100 µM | > 100 µM | > 100 µM | > 100 µM | – | – | > 100 µM | > 100 µM | > 100 µM | > 100 µM | > 100 µM | > 100 µM | – | – | – | – | > 100 µM | > 100 µM
